Among the data in ChEMBL document CHEMBL1126546, “Vitamin D analogues: new regulators of cancer cell growth and differentiation” (Bioorg Med Chem Lett, 1993) are inhibition in vivo, Concentration and IC50 values, retold here.

One test concerns Rattus norvegicus. Briefly: Compound was tested for in vivo antitumor effect on rats with mammary tumors induced by nitrosomethylurea at a dose of 2.5 ug/kg/day. In kind it is functional.
The test system of test [1] is U-937. The experiment in a line: Concentration required for the compound to induce U 937 cells along the monocyte-macrophage pathway. As to conditions: Homo sapiens. In kind it is functional, cell-based.
The subject of test [2] is U-937. The experiment in a line: Compound was tested in vitro to inhibit proliferation of U 937 human histiolytic lymphoma cells. In kind it is functional, cell-based.

In turn, `C=C1/C(=C\C=C2/CCC[C@]3(C)[C@@H]([C@H](C)/C=C/C=C/C(O)(CC)CC)CC[C@@H]23)C[C@@H](O)C[C@@H]1O` [SEOCALCITOL] came in with an inhibition in vivo at 0.0025 mg/kg/day in the test with Rattus norvegicus of 80%. For the same compound, in the test with U-937 [1], the Concentration was 0.03 nM. The same compound returned an IC50 in the test with U-937 [2] of 0.25 nM.

Turning to `C=C1/C(=C\C=C2/CCC[C@]3(C)[C@@H]([C@H](C)CCCC(C)(C)O)CC[C@@H]23)C[C@@H](O)C[C@@H]1O`, the Concentration in the test on U-937 [1] was 2 nM.

Usually inhibition in vivo stands for the change of the read-out against control, counted positive when it falls. A higher inhibition in vivo goes with strong suppression. The IC50 is the concentration at which inhibition is half-maximal. A higher IC50 goes with a need for much substance.
